The values that follow come from patent publication EP0868915A1, “An anti-spasmodic and antiinflammatory composition containing a NSAID, pentifenone and fenpiverinium” (PANACEA BIOTEC LIMITED, priority 1997, dated 1998).

For this assay, the system named is distal portion of colon of rat. As to the kind of experiment: Inhibition of acetylcholine-induced contraction of isolated rat colon (antispasmodic activity). The conditions noted are these: for Percentage inhibition of Ach (100 ng/ml) -Induced contraction After Diclofenac Na: in presence of Diclofenac Sodium 20µ/ml; for inhibition at 0.01 µg/mL: Pitofenone Hcl dose 10 ng/ml; for inhibition at 0.02 µg/mL: Pitofenone Hcl dose 20 ng/ml; for inhibition at 0.04 µg/mL: Pitofenone Hcl dose 40 ng/ml; for inhibition at 0.08 µg/mL: Pitofenone Hcl dose 80 ng/ml. Here is the method: In order to see the effect of NSAID on the Antispasmodic activity of Pitifenone hydrochloride and Fenpiverinium bromide an experiment was conducted on standard isolated tissues of experimental animal. The tissue chosen for the experiment was the distal portion of colon of rat. The NSAID selected for the experiment was Diclofenac Sodium.
The percentage inhibition of Acetylcholine - induced contraction (at dosage level of 100ng/m) was studied with varied concentration of Pitofenone Hydrochloride in the dose range of 10-80 nano gm/ml.
The percentage inhibition of Acetylcholine -induced contraction (at dosage level of 100ng/ml) was studied with varied concentration of Fenpiverinium bromide in the dose range of 0.5-2 ng/ml.
The experiment was then conducted at the same dose level of Acetylcholine and Fenpiverinium bromide but in the presence of Diclofenac Sodium (dose level 20µ gm/ml). The data obtained in the experiment is collected in Table -2.

[1] abbreviates: Fenpiverinium Bromide dose 0.5 (ng/ml).
The mark [2] stands for this setting: Fenpiverinium Bromide dose 1.0 (ng/ml).
Setting [3] is: Fenpiverinium Bromide dose 2.0 (ng/ml).
Setting [4] is: in presence of Diclofenac Sodium 20 µg/ml, read-out: Percentage inhibition of Ach (100 ng/ml) -induced contraction After Diclofenac Na.
[5] abbreviates: read-out: Percentage inhibition of Ach (100 ng/ml) -induced contraction Before Diclofenac Na.

Each structure is given as a SMILES string. Structures can show the parent of a compound that is named as a salt. Where two headings read alike, the source gives them in different places.

With `O=C(O)Cc1ccccc1Nc1c(Cl)cccc1Cl` [Diclofenac, Diclofenac Sodium], where the note is “Diclofenac Sodium 20 µg/ml”, the “action with Fenpiverinium bromide as an Antispasmodic” value is “synergistic (potentiating) action” and the “action with Pitofenone Hydrochloride as an Antispasmodic” value is reported as “synergistic (potentiating) action”.

With `C[N+]1(CCC(C(N)=O)(c2ccccc2)c2ccccc2)CCCCC1` [Fenpiverinium Bromide, Fenpiverinium bromide], the “Percentage inhibition of Ach (100 ng/ml) -Induced contraction Before Diclofenac Na” value runs as follows: under setting [1], 43.8%; under setting [2], 78.7%; under setting [3], 100%. For the same compound, the “Percentage inhibition of Ach (100 ng/ml) -Induced contraction After Diclofenac Na” value under setting [1] stood at 100%, the “Percentage inhibition of Ach (100 ng/ml) -Induced contraction After Diclofenac Na” value under setting [2] was 100% and the “Percentage inhibition of Ach (100 ng/ml) -Induced contraction After Diclofenac Na” value under setting [3] stood at 100%.

With `COC(=O)c1ccccc1C(=O)c1ccc(OCCN2CCCCC2)cc1` [Pitofenone Hcl, Pitofenone Hydrochloride], under setting [4], the inhibition at 0.01 µg/mL amounted to 100%, the inhibition at 0.02 µg/mL worked out at 100%, the inhibition at 0.04 µg/mL was determined as 100% and the inhibition at 0.08 µg/mL stood at 100%. Under setting [5], the inhibition at 0.01 µg/mL is 0%, the inhibition at 0.02 µg/mL is 0%, the inhibition at 0.04 µg/mL stood at 0% and the inhibition at 0.08 µg/mL was 20.2%.
